From patent US7009045B2 (priority 2000, dated 2006)

Assays:
Format in all cases: cell-based
[1] = system: Candida famata regulatory mutants able to overproduce riboflavin; test: Sensitivity to copper ions, solid Burkholder medium (Table 12)
Procedure: (§1) The sensitivity of the regulatory mutants of the yeast C. famata which overproduce riboflavin in iron rich medium probably due to defects in genes regulating repression (repression mutants), to different ions of heavy metals was studied. For this, the analyzed strains were streaked on the YPD plates and then were replica-plated on Burkholder synthetic medium containing leucine (40 μg/ml). The C.famata mutants L20105-40-1-11, L20105-40-1-17, L20105-3-2-1, L20105-3-2-8 and L20105-3-2-12 (all contained leu2 marker) accumulated 80–100 μg riboflavin/ml. The mutants #75, 4-48, 2-5 produced much higher amounts of riboflavin (200–250 μg/ml) but were prototrophs for leucine synthesis. Strain #75 was characterized by retarded growth comparing with other mutants. The strains VKM Y-9 (wild type) and L20105 (leu2) were used as the control strains.
Mutants overproducing lower amounts of riboflavin appeared to be more sensitive to CuSO4 (0.15 mM) than that of the strains producing higher amounts of riboflavin (inhibitory concentration 0.5 mM) (Table 12).

[2] = system: Candida famata regulatory mutants able to overproduce riboflavin; test: Sensitivity to K2Cr2O7, solid Burkholder medium with 0.5% glycerol (Table 14); design: key: +++: strong growth; ++: weak growth; —: absence of growth
Procedure: as §1

[3] = system: Candida famata wild type and regulatory mutants able to overproduce riboflavin on iron-rich medium; test: Sensitivity after electroporation to K2Cr2O7, Burkholder medium with 1% ethanol (Table 17); details: K2Cr2O7 15–50 μM
Text: The strategy for the cloning of the genes regulating derepression of riboflavin in C. famata was developed using regulatory mutants 2-5 and 4-48 which accumulate elevated amounts of riboflavin in the medium with high iron content. The method for positive selection of the transformants which, after transformation with C. famata gene library, would lose the ability to overproduce riboflavin in iron rich medium, was developed. For this, the difference in sensitivity to Cr^+6 ions (as K2Cr2O7) between C. famata wild strain VKM Y-9 and overproducers of riboflavin 2-5 and 4-48 after their electroporation with the C. famata gene library constructed on pCfARS1614, was studied.
Toxicity of Cr^+6 was studied on agar plates containing different carbon sources (sucrose, glycerol, ethanol). Before the electroporated cells were plated on ethanol and glycerol medium, the cells were washed 3 times with 10 fold volumes of 0.6 M KCl and the suspension volumes were adjusted with 0.6 M KCl to 100 μl. On each plate containing glycerol (0.5%) or ethanol (1%), 0.6 M KCl and different concentrations (10–200 uM) of K2Cr2O7, in a 30–60 μl suspension were spread. Where sucrose was used as a carbon source, this sugar was used at a 0.3M concentration, using it as both as a carbon source and osmotic stabilizer.

O=S(=O)([O-])[O-].[Cu+2] [CuSO4]
inhibitory concentration, mutants overproducing lower amounts of riboflavin [1]: 0.15 mM | inhibitory concentration, strains producing higher amounts of riboflavin [1]: 0.5 mM

[K+].[K+].[O]=[Cr](=[O])([O-])[O][Cr](=[O])(=[O])[O-] [K2Cr2O7]
growth ([2]; #2-5, K2Cr2O7 25 μM): +++ | growth ([2]; #2-5, K2Cr2O7 30 μM): +++ | growth ([2]; #2-5, K2Cr2O7 35 μM): +++ | growth ([2]; #2-5, K2Cr2O7 40 μM): +++ | growth ([2]; #2-5, K2Cr2O7 45 μM): +++ | growth ([2]; #2-5, K2Cr2O7 55 μM): ++ | growth ([2]; #2-5, K2Cr2O7 85 μM): — | growth ([2]; #2-5, K2Cr2O7 100 μM): — | growth ([2]; #2-5, K2Cr2O7 125 μM): — | growth ([2]; #2-5, K2Cr2O7 150 μM): — | growth ([2]; #4-48, K2Cr2O7 25 μM): +++ | growth ([2]; #4-48, K2Cr2O7 30 μM): +++ | growth ([2]; #4-48, K2Cr2O7 35 μM): +++ | growth ([2]; #4-48, K2Cr2O7 40 μM): +++ | growth ([2]; #4-48, K2Cr2O7 45 μM): +++ | growth ([2]; #4-48, K2Cr2O7 55 μM): ++ | growth ([2]; #4-48, K2Cr2O7 65 μM): — | growth ([2]; #4-48, K2Cr2O7 70 μM): — | growth ([2]; #4-48, K2Cr2O7 75 μM): — | growth ([2]; #4-48, K2Cr2O7 85 μM): — | growth ([2]; #4-48, K2Cr2O7 100 μM): — | growth ([2]; #4-48, K2Cr2O7 125 μM): — | growth ([2]; #4-48, K2Cr2O7 150 μM): — | growth ([2]; #75, K2Cr2O7 25 μM): +++ | growth ([2]; #75, K2Cr2O7 30 μM): +++ | growth ([2]; #75, K2Cr2O7 35 μM): +++ | growth ([2]; #75, K2Cr2O7 45 μM): ++ | growth ([2]; #75, K2Cr2O7 55 μM): ++ | growth ([2]; #75, K2Cr2O7 65 μM): — | growth ([2]; #75, K2Cr2O7 70 μM): — | growth ([2]; #75, K2Cr2O7 75 μM): — | growth ([2]; #75, K2Cr2O7 85 μM): — | growth ([2]; #75, K2Cr2O7 100 μM): — | growth ([2]; #75, K2Cr2O7 125 μM): — | growth ([2]; #75, K2Cr2O7 150 μM): — | growth ([2]; L20105 (leu2), K2Cr2O7 25 μM): +++ | growth ([2]; L20105 (leu2), K2Cr2O7 30 μM): +++ | growth ([2]; L20105 (leu2), K2Cr2O7 35 μM): +++ | growth ([2]; L20105 (leu2), K2Cr2O7 40 μM): +++ | growth ([2]; L20105 (leu2), K2Cr2O7 45 μM): +++ | growth ([2]; L20105 (leu2), K2Cr2O7 50 μM): +++ | growth ([2]; L20105 (leu2), K2Cr2O7 55 μM): +++ | growth ([2]; L20105 (leu2), K2Cr2O7 60 μM): +++ | growth ([2]; L20105 (leu2), K2Cr2O7 65 μM): ++ | growth ([2]; L20105 (leu2), K2Cr2O7 70 μM): ++ | growth ([2]; L20105 (leu2), K2Cr2O7 75 μM): ++ | growth ([2]; L20105 (leu2), K2Cr2O7 85 μM): ++ | growth ([2]; L20105 (leu2), K2Cr2O7 100 μM): ++ | growth ([2]; L20105 (leu2), K2Cr2O7 125 μM): — | growth ([2]; L20105 (leu2), K2Cr2O7 150 μM): — | growth ([2]; L20105-3-2-4, K2Cr2O7 25 μM): +++ | growth ([2]; L20105-3-2-4, K2Cr2O7 45 μM): — | growth ([2]; L20105-3-2-4, K2Cr2O7 50 μM): — | growth ([2]; L20105-3-2-4, K2Cr2O7 55 μM): — | growth ([2]; L20105-3-2-4, K2Cr2O7 60 μM): — | growth ([2]; L20105-3-2-4, K2Cr2O7 65 μM): — | growth ([2]; L20105-3-2-4, K2Cr2O7 70 μM): — | growth ([2]; L20105-3-2-4, K2Cr2O7 85 μM): — | growth ([2]; L20105-3-2-4, K2Cr2O7 100 μM): — | growth ([2]; L20105-3-2-4, K2Cr2O7 125 μM): — | growth ([2]; L20105-3-2-4, K2Cr2O7 150 μM): — | growth ([2]; L20105-3-2-8, K2Cr2O7 25 μM): +++ | growth ([2]; L20105-3-2-8, K2Cr2O7 45 μM): — | growth ([2]; L20105-3-2-8, K2Cr2O7 50 μM): — | growth ([2]; L20105-3-2-8, K2Cr2O7 55 μM): — | growth ([2]; L20105-3-2-8, K2Cr2O7 60 μM): — | growth ([2]; L20105-3-2-8, K2Cr2O7 65 μM): — | growth ([2]; L20105-3-2-8, K2Cr2O7 70 μM): — | growth ([2]; L20105-3-2-8, K2Cr2O7 75 μM): — | growth ([2]; L20105-3-2-8, K2Cr2O7 85 μM): — | growth ([2]; L20105-3-2-8, K2Cr2O7 100 μM): — | growth ([2]; L20105-3-2-8, K2Cr2O7 125 μM): — | growth ([2]; L20105-3-2-8, K2Cr2O7 150 μM): — | growth ([2]; L20105-3-2-12, K2Cr2O7 25 μM): +++ | growth ([2]; L20105-3-2-12, K2Cr2O7 45 μM): — | growth ([2]; L20105-3-2-12, K2Cr2O7 50 μM): — | growth ([2]; L20105-3-2-12, K2Cr2O7 55 μM): — | growth ([2]; L20105-3-2-12, K2Cr2O7 60 μM): — | growth ([2]; L20105-3-2-12, K2Cr2O7 65 μM): — | growth ([2]; L20105-3-2-12, K2Cr2O7 70 μM): — | growth ([2]; L20105-3-2-12, K2Cr2O7 75 μM): — | growth ([2]; L20105-3-2-12, K2Cr2O7 85 μM): — | growth ([2]; L20105-3-2-12, K2Cr2O7 100 μM): — | growth ([2]; L20105-3-2-12, K2Cr2O7 125 μM): — | growth ([2]; L20105-3-2-12, K2Cr2O7 150 μM): — | growth ([2]; VKM Y-9, K2Cr2O7 65 μM): +++ | growth ([2]; VKM Y-9, K2Cr2O7 70 μM): +++ | growth ([2]; VKM Y-9, K2Cr2O7 75 μM): +++ | growth ([2]; VKM Y-9, K2Cr2O7 85 μM): +++ | growth ([2]; VKM Y-9, K2Cr2O7 100 μM): +++ | growth ([2]; VKM Y-9, K2Cr2O7 125 μM): ++ | growth of the wild-type strain [3]: almost uninhibited
